Assay results: US20220016125A1, “RIBOFLAVIN FOR TREATING COLLAGENOUS TISSUES IN THE DISEASES OF JOINTS, PARTICULARLY OF INVERTEBRAL DISCS” (Albert-Ludwigs-Universitat Freiburg, priority 2018, published 2022)

Assays:
[1] = system: bovine intervertebral discs; test: Young's modulus of fresh bovine intervertebral discs before and after UV irradiation (Biomomentum Mach-1); conditions: 8 mM riboflavin (riboflavin 5′-phosphate sodium salt hydrate) in PBS, 15 min soak, 365 nm UVA, 3.5 mW/cm^2, 15 minutes
Method: For the characterization, Young's modulus or modulus of elasticity (Akhtar et. Al 2011) was determined locally on an established device (Biomomentum Mach-1 Biomomentum Inc.; Sim et al. 2014).
Fresh bovine tails were provided from the local meat processing plant within 2 hours of slaughter. The paravertebral structure was removed (FIG. 11).
Bovine intervertebral discs (IVDs), which are attached to the vertebral body, were isolated (FIG. 12).
In order to stabilize the samples on the device, the bovine vertebral bodies with attached intervertebral discs were fixed in PMMA bone cement (FIG. 13).
With the aid of the camera of the Biomomentum device, the surface of the bovine intervertebral discs was measured with respect to their biomechanical properties (Young's modulus) (FIG. 14).
A solution with 8 mM riboflavin (riboflavin 5′-phosphate sodium salt hydrate, Sigmaaldrich) in PBS (phosphate buffered saline solution) and pH: 7.4 water (Thermofisher) was used to soak the exposed surface of the bovine intervertebral discs for 15 minutes (dark mode). Immediately afterwards, the samples were placed in the Biomomentum device for analysis (dark mode).
After the analysis, the same sample was irradiated homogeneously with 365 nm UVA light (Opsytech Dr. Groebel-UV LED series L) at 3.5 mW/cm^2 for 15 minutes. A second analysis of the previously measured positions followed.
A total of 38 measurements were carried out on 15 healthy bovine intervertebral discs.
The percentage stiffening corresponds to the percentage increase in Young's modulus after UV irradiation, compared to the value measured before UV irradiation.

[2] = system: collagen fibers in the transition zone between the annulus fibrosus and nucleus pulposus; test: Riboflavin/UV crosslinking of collagen fibers in bovine intervertebral disc cryosections, autofluorescence microscopy; conditions: 10 bovine samples, 0.6 mm slices; 0.1 mL of 0.25% riboflavin solution twice at 30 s interval; UV 370 nm, 9 mW/cm^2, two minutes
Method: (§1) Five freshly frozen bovine intervertebral discs and two freshly frozen human intervertebral discs from the Anatomy department of the University of Freiburg were used for the experiments (see FIG. 6).
(§2) The intervertebral discs were thinly cut into 0.6 mm thick slices using a cryomicrotome and placed on glass plates (see FIG. 7). The thin discs arise from the transition zone between the annulus fibrosus and nucleus pulposus, which is indicated by a rectangle in FIG. 6.
(§3) A total of 10 bovine and 10 human samples were prepared and examined for the experiments.
(§4) Before treatment with riboflavin, the samples were imaged by autofluorescence microscopy to visualize the collagen fibers. The architecture, orientation and crosslinking density of the collagen fibers in the samples before treatment are shown in FIGS. 9 a) and 10 a).
(§5) To crosslink the collagen fibers, 0.1 mL of a riboflavin solution at a concentration of 0.25% was administered twice at a time interval of 30 seconds. The sample was then irradiated with UV light.
(§6) A UV radiation source with an average wavelength of 370 nm (365-375 nm) was used to irradiate the samples. […]
(§7) After the treatment, the collagen fibers were reimaged using autofluorescence microscopy in order to visualize the identical sample area. This allows changes in the crosslinking density of the collagen fibers to be detected.

[3] = system: collagen fibers in the transition zone between the annulus fibrosus and nucleus pulposus; test: Riboflavin/UV crosslinking of collagen fibers in human intervertebral disc cryosections, autofluorescence microscopy; conditions: 10 human samples, 0.6 mm slices; 0.1 mL of 0.25% riboflavin solution twice at 30 s interval; UV 370 nm, 9 mW/cm^2, two minutes
Method: as §1, §2, §3, §4, §5, §6, §7

[4] = compared to value before UV irradiation

`Cc1cc2nc3c(=O)[nH]c(=O)nc-3n(C[C@H](O)[C@H](O)[C@H](O)CO)c2cc1C` [riboflavin, 7,8-dimethyl-10-(D-ribit-1-yl)-isoalloxazine] was tested, and the “elastic properties (Young's modulus) after UV irradiation” value ([1]; 38 measurements on 15 discs) was “Stiffening or reinforcement of the elastic properties (Young's modulus) was observed in all samples”, the “maximum stiffening (percentage increase in Young's modulus after UV irradiation)” value [1, 4] was 348% and the “minimum stiffening or reinforcement (percentage increase in Young's modulus after UV irradiation)” value [1, 4] was 52%. For the same compound, the “crosslinking density of the collagen fibers” value [2] was “visually evident increase in the crosslinking density” and the “crosslinking density of the collagen fibers” value [3] was “visually evident increase in the crosslinking density”.
